Test: Human HepG2 cell viability assay in 384 well format
Assay type: toxicity, cell-based
Design: dose 125 nL, time 70.5 hour; concentration not given beside the values
Details: HepG2 cells, read-out: Inhibition

SMILES | cytotoxicity at 70.5 h [%]
O=C(c1ccco1)N1CCCC2(CN(Cc3ccc(F)cc3)CCO2)C1 (configuration not stated) | -1.46
O=C1CCC2(CCN(Cc3ncccn3)CC2)CN1CCCO | -8.14
CCOCC(=O)N1CCn2cc(CN(C)Cc3ccco3)nc2C1 | -0.359
Cn1cc(CCCNC(=O)NC2CCN(CC(F)(F)F)C2=O)cn1 (configuration not stated) | -3.21
CC(C)NC(=O)C1CN(C(=O)c2ccccc2)CC12CCOCC2 (configuration not stated) | -5.57
COc1ccc(C(C)NCCC(N)=O)cc1F (configuration not stated) | 1.06
CN1CCN(Cc2cnn(-c3ccccc3Cl)c2)[C@H]2CS(=O)(=O)C[C@H]21 | -5.22
Cc1ccn2c(F)c(C(=O)N3CCC4(CCC(=O)N(C)C4)CC3)nc2c1 | -10.1
Cc1noc(C(C)C)c1C(=O)NS(=O)(=O)c1cccnc1 | 17.5
O=C1CCC2(CCCN(c3ncc(F)cn3)CC2)N1CC1CC1 (configuration not stated) | -1.42
CCc1nc(C)c(CC(=O)N2CCC3(CC2)OCCCC3OC)c(=O)[nH]1 (configuration not stated) | -6.31
Cc1nc2c(c(C)c1CC(=O)Nc1ccccc1F)c(=O)[nH]n2C | 4.76
COCc1nc2ncc3c(=O)n(-c4ccc(C(C)=O)cc4)ccc3n2n1 | -10.8
COCC(=O)N1CC2=CC(C)(C)COc3ccc(OC)c(c32)C1 | 21.5
Cc1cn2c(n1)CCC(NS(=O)(=O)c1sc(C)nc1C)C2 (configuration not stated) | 3.5
CCS(=O)(=O)NC[C@]12COC[C@H]1CN(Cc1cccnc1)C2 | 7.34
Cc1noc(C2CCN(C(=O)CCc3nccs3)CC2)n1 | 21.5
O=C(c1ccccc1)N1CCO[C@@H]2CNC[C@@H]21 | -5.73
O=C(CCCc1ccc(Cl)cc1)N1CCN(C(=O)c2ccc[nH]2)CC1 | 1.45

SMILES | cytotoxicity at 70.5 h [%]
Cc1nn(C)c(Cl)c1C1CCCN1C(=O)c1ccnn1C (configuration not stated) | -14.4
Cc1ncccc1C(=O)Nc1cccc2c1C(=O)NC2 | -2.21
NC(=O)N1CCCC(C(=O)NCCOc2ccc3c(c2)OCO3)C1 (configuration not stated) | 2.99
O=C(CC1CC1)NC[C@]12COC[C@H]1CN(c1ncccn1)C2 | -8
COCC(=O)N1CCC(c2n[nH]c3nccnc23)CC1 | -7.45
N#CCCCOc1cccnc1NC(=O)Cc1ccccc1F | 0.586
CN1CCOC(CN(C(=O)Cc2ccccc2F)c2nccs2)C1 (configuration not stated) | 20.9
CC(NCC1CCS(=O)(=O)CC1)c1cccc(OC(F)F)c1 (configuration not stated) | -6.96
Cc1ncsc1CN1CCn2c(COCC3CC3)cnc2C1C (configuration not stated) | -2.63
CN(Cc1cccc(C(N)=O)c1)CC1CCCN1c1cccnn1 (configuration not stated) | -10.2
O=C(NCC1Cn2nnc(-c3ccccc3)c2CO1)c1ccc[nH]1 (configuration not stated) | 1.41
COc1ccc(CS(=O)(=O)CC(=O)NCc2ccccc2F)cc1F | -11.2
OC1CCN(c2ccnc3c(F)cc(Br)cc23)CC1 | 16.9
Cc1nccc(-c2cccc(-c3ccn(CC4CCNC4)n3)c2)n1 (configuration not stated) | -3.45
CN(C)c1ccc(CNC(=O)Nc2ccc(S(=O)(=O)C(F)F)cc2)cc1 | -0.147
CCC1CN(Cc2nnc(C(C)C)o2)CCC(=O)N1Cc1ccccc1 (configuration not stated) | -10.7
COCCCSc1ccc(NCc2ccc(C)cn2)cc1 | -6.35
Cc1c(Cn2c(=O)cnc3ccccc32)cnn1C | -14.9
Cc1ncnc2c1CCN(Cc1cccs1)CC2 | 22.9

SMILES | cytotoxicity at 70.5 h [%]
Cc1n[nH]c(C2CN(C(=O)c3cc4c(s3)CCCC4)CCO2)n1 (configuration not stated) | -4.81
COc1ccc(CCC(=O)NCc2cc(C)on2)cc1 | 8.95
CCN(CC)Cc1cc(C(=O)N2CCC3(CC2)NCCNC3=O)c(C)o1 | 1.97
Cc1nn(C)c(C)c1C1CCCN1Cc1cccc(C(N)=O)c1 (configuration not stated) | 4
O=C(NC1CC(=O)N(C2Cc3ccccc3C2)C1)c1ccsc1 (configuration not stated) | -3.74
Cc1cc(C[C@@H]2CCC[C@H]2NCc2ccccc2F)on1 | -2.37
Cc1ccc(C(=O)N2CCc3c(CN4CCCC4)nn(C)c3C2)cc1C | -2.24
Cc1ccccc1-n1cc(C2=CCN(CCn3cc[nH]c3=O)CC2)cn1 | -6.71
CC(C)(CN1CCC(Cc2ccc(C(=O)O)cc2)C1)N1CCOCC1 (configuration not stated) | -12.2
O=C1NCC[C@]12CN(Cc1cccnc1)C[C@H]2c1ccccc1 | -3.58
Cc1cccc(S(=O)(=O)N2C[C@@H]3OCCN(C(C)C)[C@@H]3C2)c1 | -6.06
Cc1ccc(CC(=O)N2CCCC(c3cc(C(N)=O)[nH]n3)C2)cn1 (configuration not stated) | -2.37
COc1ccccc1CNC(=O)COc1ccc2c(c1)OCC2O (configuration not stated) | -5.21
Cc1cc(C)n(CC2CCCN2C(=O)c2ccc3c(c2)OCCO3)n1 (configuration not stated) | -12.8
COc1ccc(Br)cc1SCCCS(C)(=O)=O | -0.49
O=C1CC[C@@H]2[C@@H](CCN2C(=O)C2CCOCC2)N1CC1CC1 | -8.18
CN1CCCn2c(nc(CNC(=O)c3nccn3C)cc2=O)C1 | -1.89
Cc1cc(=O)n(CCNS(=O)(=O)c2ccc(F)c(Cl)c2)cn1 | -4.51
COC(C)(C)CC(C)NC(=O)NC1CCN(Cc2ccccn2)CC1 (configuration not stated) | -0.855

— ChEMBL document CHEMBL3507680, “University of Dundee, Gates Library screen for HepG2 cell viability”
